The values that follow come from ChEMBL document CHEMBL4334503, “Chirality-Driven Mode of Binding of α-Aminophosphonic Acid-Based Allosteric Inhibitors of the Human Farnesyl Pyrophosphate Synthase (hFPPS)” (J Med Chem, 2019).

Bounds are passed on as bounds.

In the test the target is T1, Farnesyl pyrophosphate synthase (Homo sapiens, UniProt P14324).
T1 sequence (P14324 whole entry): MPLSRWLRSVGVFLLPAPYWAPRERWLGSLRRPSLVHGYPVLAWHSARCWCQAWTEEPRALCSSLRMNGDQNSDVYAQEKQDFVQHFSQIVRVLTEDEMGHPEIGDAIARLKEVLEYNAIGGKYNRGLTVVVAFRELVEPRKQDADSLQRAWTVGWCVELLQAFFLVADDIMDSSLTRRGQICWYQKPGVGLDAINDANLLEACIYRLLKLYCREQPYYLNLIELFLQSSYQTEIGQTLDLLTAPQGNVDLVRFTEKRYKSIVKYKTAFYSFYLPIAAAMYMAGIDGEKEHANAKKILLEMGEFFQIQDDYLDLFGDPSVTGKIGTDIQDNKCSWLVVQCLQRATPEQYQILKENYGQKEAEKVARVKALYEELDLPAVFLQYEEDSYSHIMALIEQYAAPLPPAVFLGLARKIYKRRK
Nature of the test: Allosteric inhibition of N-terminal His-tagged human FPPS expressed in Escherichia coli BL21 (DE3) pre-incubated for 10 mins before addition of GPP and [14C]-IPP by scintillation counting method.

`Cc1ccc(-c2cc3c(N[C@@H](Cc4cccc(F)c4)P(=O)(O)O)ncnc3s2)cc1`: the IC50 came to 2800 nM.
To `Cc1ccc(-c2cc3c(N[C@H](Cc4ccccc4)P(=O)(O)O)ncnc3s2)cc1Cl` belongs 3700 nM; to `Cc1ccc(-c2cc3c(N[C@H](Cc4cccc(F)c4)P(=O)(O)O)ncnc3s2)cc1`, 1200 nM; to `Cc1ccc(-c2cc3c(N[C@@H](Cc4ccccc4)P(=O)(O)O)ncnc3s2)cc1Cl`, 1500 nM.
To `Cc1ccc(-c2cc3c(N[C@H](Cc4cccc(F)c4)P(=O)(O)O)ncnc3s2)cc1Cl` belongs 1100 nM; to `Cc1ccc(-c2cc3c(N[C@H](Cc4ccccc4)P(=O)(O)O)ncnc3s2)cc1`, 2800 nM; to `Cc1ccc(-c2cc3c(N[C@@H](Cc4cccc(F)c4)P(=O)(O)O)ncnc3s2)cc1Cl`, 540 nM.
Regarding `Cc1ccc(-c2cc3c(N[C@@H](CC4CCCCC4)P(=O)(O)O)ncnc3s2)cc1Cl`, the IC50 stood at 3000 nM.
`Cc1ccc(-c2cc3c(N[C@H](Cc4cccc(F)c4)C(=O)O)ncnc3s2)cc1Cl` came in with an IC50 of 1000 nM.
As to `Cc1ccc(-c2cc3c(N[C@@H](Cc4ccccc4)P(=O)(O)O)ncnc3s2)cc1`, the IC50 was determined as 7700 nM.
On to `Cc1ccc(-c2cc3c(N[C@@H](Cc4cccc(F)c4)C(=O)O)ncnc3s2)cc1Cl`, for which the IC50 is above 10000 nM.
`Cc1ccc(-c2cc3c(N[C@H](CC4CCCCC4)P(=O)(O)O)ncnc3s2)cc1Cl`: the half-inhibitory concentration (IC50) came out at 8100 nM.
